Data from paper PMC4162403 (Angewandte Chemie (International ed. in English), 2010).

Biological target: TNF-α (Homo sapiens, UniProt P01375)
Experiment: inhibition of TNFR-1 binding to TNF-α, side-by-side experiment
Details: read-out: % inhibition at 10 μM

Chain of TNF-α (P01375 77-233): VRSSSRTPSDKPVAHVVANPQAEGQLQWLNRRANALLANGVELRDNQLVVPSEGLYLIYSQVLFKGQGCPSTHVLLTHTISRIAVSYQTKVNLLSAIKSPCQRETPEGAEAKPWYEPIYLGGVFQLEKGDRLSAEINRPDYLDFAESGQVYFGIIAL

inhibition at 10 µM: 34%
SMILES: Cc1cc2occ(CN(C)CCN(C)Cc3cn(-c4cccc(C(F)(F)F)c4)c4ccccc34)c(=O)c2cc1C [SPD304]
